Earlier results on one compound are cited in patent US11419915B2, “Compositions and methods for the treatment of malnutrition” (VitalneXt B.V., priority 2015, dated 2022).

The conditions of this data set: dose of 80 mg/kg bodyweight ursolic acid from an ethanolic extract of Sambucus chinensis; rat plasma.

`C[C@H]1[C@H](C)CC[C@]2(C(=O)O)CC[C@]3(C)C(=CC[C@@H]4[C@@]5(C)CC[C@H](O)C(C)(C)[C@@H]5CC[C@]43C)[C@H]12` [ursolic acid, 3-beta-3-hydroxy-urs-12-ene-28-oic-acid]: the oral bioavailability is recorded as 0.6%.
